From patent publication US20110105611A1, “USE OF MASLINIC ACID FOR THE TREATMENT OF P[…] THEIR SYMPTOMS THROUGH THE INHIBITION OF COX-2” (Biomaslinic S.L., priority 2008, published 2011)
Entries after “also recorded” stand apart in the source; their conditions may differ. Like-named read-outs stand apart in the source and are kept apart here.

What was measured:
[1] = test system: COX-2; assay: COX-2 protein expression in LPS-stimulated monocytes (western blot); assay type: cell-based, human; settings: growing doses of MA, 12 hours, listed as MA
Description: (§1) 2. Cell Cultures • Isolation and culture of primary monocytes of peripheral blood. Peripheral blood mononuclear cells (PBMC) coming from healthy adults volunteer donors were isolated by venous blood centrifugation through density gradient with Ficoll-Hypaque. The monocytes were separated through adherence to plastic and later cultured in 24-well plates at a density of 50,000 cells/ml for the enzyme immunoassay (EIA) experiments and in 6-well plates for the immunoblot assays. • Culture of human primary chondrocytes. Chondrocytes were bought from Promocell (Heidelberg, Germany) and cultured in medium conditioned for this type of cells. […] The cultures were expanded in 6-well plates and the production of PGE2 measured in cells after the 3 or 4 pass. • Culture of cell lines. […]
The cells (primary monocytes or SK—N—SH) were stimulated as indicated in each case and lysis solution in 50 μl (20 mM Hepes pH 8.0, 10 mM KCl, 0.15 mM EGTA, 0.15 mM EDTA, 0.5 mM Na3VO4, 5 mM NaF, 1 mM DTT, leupeptin 1 μg/ml, pepstatin 0.5 μg/ml, aprotinin 0.5 μg/ml, 1 mM PMSF y 0.5% NP-40). The protein concentration was determined through the Bradford reagent (Bio-Rad, Richmond, Calif., USA) and 30 μg of proteins were boiled in Laemmli solution and submitted to electrophoresis in gel of SDS/polyacrylamide at 10%. […]

[2] = test system: 8-iso-PGF2α production in human monocytes; assay: Isoprostane (8-iso-PGF2α) release in LPS-stimulated human monocytes (EIA); assay type: cell-based; settings: for release of 8-iso-PGF2α (isoprostanes): human monocytes of peripheral blood after LPS stimulation
Description: (§2) 2. Cell Cultures • Isolation and culture of primary monocytes of peripheral blood. Peripheral blood mononuclear cells (PBMC) coming from healthy adults volunteer donors were isolated by venous blood centrifugation through density gradient with Ficoll-Hypaque. The monocytes were separated through adherence to plastic and later cultured in 24-well plates at a density of 50,000 cells/ml for the enzyme immunoassay (EIA) experiments and in 6-well plates for the immunoblot assays. • Culture of human primary chondrocytes. Chondrocytes were bought from Promocell (Heidelberg, Germany) and cultured in medium conditioned for this type of cells. The cells were cultured in 24-well plates for the determination of PGE2 and IL-6. • Culture of rat primary astrocytes. The astrocyte primary cultures were prepared from neonatal rat brains (1 day old). The upper part of the brain was opened and the meninges carefully separated to avoid contamination of the cultures with fibroblasts. The cerebral cortex was isolated and a cellular suspension was obtained, which was cultured in DMEM conditioned for the astrocyte culture. The cultures were expanded in 6-well plates and the production of PGE2 measured in cells after the 3 or 4 pass. • Culture of cell lines. SK—N—SH (American Tissue Culture collection, HTB 11) is a cell line derived from a human neuroblastoma and an exponential growth in DMEM supplemented by 2 mmol/l L-glutamine, antibiotics and 10% FCS. The cells were cultured at 37° C. and in an atmosphere at 5% CO2.
(§3) Monocyte cultures were stimulated in the same way as for the production of PGE2 (LPS stimulation for 24 hours) and the amount of 8-iso-prostaglandine F2α (isoprostanes) or IL-6 released by the cells was determined respectively through the systems EIA from Cayman (USA) (catalogue number 516351) or from Pelikine (catalogue number RDI-M1916clb) following the manufacturer instructions.
Isoprostanes such as endoperoxide 8-iso-prostaglandin F2α (8-iso-PGF2α) are metabolites of the oxidation of arachidonic acid and nowadays it is considered one of the best markers of oxidative stress. […]

[3] = test system: T lymphocytes; assay: Activation and proliferation of T lymphocytes stimulated via TCR; assay type: cell-based
[4] = test system: PGE2 production in SK-N-SH cells; assay: PGE2 production in SK-N-SH neuroblastoma cell line; assay type: cell-based, human
Description: as §1, with “cells. The cells were cultured in 24-well plates for the determination of PGE2 and IL-6. • Culture of rat primary astrocytes. The astrocyte primary cultures were prepared from neonatal rat brains (1 day old).” for “cells.”
(§4) Chondrocyte, monocyte and astrocyte cultures were stimulated with the corresponding activators (IL-1, LPS or PMA plus lonomicine) in presence or absence of several concentrations of maslinic acid during the indicated times. […] PGE2 was determined using the EIA system of Assay Designs (catalogue number 901-001) following the manufacturer instructions.

[5] = test system: mononuclear cells of human peripheral blood; settings: cited from earlier work
[6] = test system: IL-6 production in human chondrocytes; assay: IL-6 production in primary human chondrocytes stimulated with IL-1; assay type: cell-based; settings: IL-1 10 U/ml, concentration dependent
Description: as §1, with “cells. The cells were cultured in 24-well plates for the determination of PGE2 and IL-6. • Culture of rat primary astrocytes. The astrocyte primary cultures were prepared from neonatal rat brains (1 day old). The upper part of the brain was opened and the meninges carefully separated to avoid contamination of the cultures with fibroblasts.” for “cells.”
(§5) In order to determine if the effect of MA on the production of PGE2 also occurred in another cell type involved in inflammatory phenomena the anti-inflammatory activity of maslinic acid on primary human chondrocytes was determined. […]

[7] = test system: PGE2 production in human monocytes; assay: PGE2 production in LPS-stimulated human monocytes of peripheral blood (EIA); assay type: cell-based; settings: LPS-stimulated human monocytes from peripheral blood
Description: as §1, with “cells. The cells were cultured in 24-well plates for the determination of PGE2 and IL-6. • Culture of rat primary astrocytes. The astrocyte primary cultures were prepared from neonatal rat brains (1 day old).” for “cells.”
as §4, with “instructions. […]” for “instructions.”

[8] = test system: PGE2 production in primary astrocytes; assay: PGE2 production in primary rat astrocytes; assay type: cell-based
Description: as §1, with “cells. The cells were cultured in 24-well plates for the determination of PGE2 and IL-6. • Culture of rat primary astrocytes. The astrocyte primary cultures were prepared from neonatal rat brains (1 day old).” for “cells.”
as §4

[9] = test system: tumor cell lines; assay: Apoptosis induction in tumor cell lines (concentration comparison); assay type: cell-based
[10] = test system: IL-6 production in human monocytes; assay: IL-6 production in LPS-stimulated human monocytes (EIA); assay type: cell-based
Description: as §1, with “cells. The cells were cultured in 24-well plates for the determination of PGE2 and IL-6. • Culture of rat primary astrocytes. The astrocyte primary cultures were prepared from neonatal rat brains (1 day old).” for “cells.”
as §3

[11] = test system: TNFα production in primary monocytes; assay: TNFα production in primary monocytes; assay type: cell-based
[12] = test system: promoter of the COX-2 gene; assay: COX-2 promoter luciferase assay in transfected SK-N-SH cells; assay type: cell-based, human; settings: PMA plus ionomycin 6 hours
Description: as §1, with “cells. The cells were cultured in 24-well plates for the determination of PGE2 and IL-6. • Culture of rat primary astrocytes. The astrocyte primary cultures were prepared from neonatal rat brains (1 day old).” for “cells.”
(§6) SK—N—SH cells were transfected with the plasmids COX-2-Luc and IL-6-Luc using the JetPei reagent (Polyplus transfection, France) according to the manufacturer instructions. […] The luciferase activity in the protein extract was determined through the use of the luminometer Autolumat LB9510 (Berthold) following the system instructions of Luciferase assay from Promega (Madison, Wis., USA). […]

[13] = test system: COX-2; assay: COX-2 enzymatic activity in LPS-induced monocytes (conversion of arachidonic acid to PGE2); assay type: cell-based, human; settings: monocytes LPS 24 hours, MA 15 minutes, arachidonic acid 15 μM 15 minutes
Method: In order to determine COX-2 activity, the cells were LPS-stimulated first (10 ng/ml) for 24 hours to induce the cellular expression of the COX-2 protein. After that time the cultures were washed and a new free of serum culture medium, maslinic acid (different concentrations) and arachidonic acid (AA) were added for 15 minutes. During this time, the enzymatic activity of COX-2 was measured by its capacity to produce PGE2 from the AA included in the culture.
Vis-à-vis the possibility of MA acting as inhibitor of COX-2 activity, we induced the expression of COX-2 through the treatment of monocytes with LPS for 24 hours. After this time, the cells were washed three times with a medium without serum and incubated for 15 minutes with growing doses of MA. After this time, arachidonic acid was added to the cultures (15 μM) for other 15 minutes and the conversion to PGE2 was measured by EIA.

[14] = test system: promoter of IL-6; assay: IL-6 promoter luciferase assay in transfected SK-N-SH cells; assay type: cell-based, human; settings: listed as MA
Description: as §1, with “cells. The cells were cultured in 24-well plates for the determination of PGE2 and IL-6. • Culture of rat primary astrocytes. The astrocyte primary cultures were prepared from neonatal rat brains (1 day old).” for “cells.”
as §6

[15] = test system: PGE2 production in human chondrocytes; assay: PGE2 release in primary human chondrocytes stimulated with IL-1; assay type: cell-based; settings: IL-1 10 U/ml; for release of PGE2 induced by IL-1, higher doses: MA 25 and 50 μg/ml
Description: as §2, §4, §5

[16] = test system: LPS-stimulated murine peritoneal macrophages; settings: cited from earlier work

Q: What does the source list for CC1(C)CC[C@]2(C(=O)O)CC[C@]3(C)C(=CC[C@@H]4[C@@]5(C)C[C@@H](O)[C@H](O)C(C)(C)[C@@H]5CC[C@]43C)[C@@H]2C1 [maslinic acid, 2-alpha,3-beta-dihydroxyolean-12-en-28-oic acid]?
A: expression of COX-2 induced by LPS (western blot) [1]: did not inhibit the expression of COX-2; release of 8-iso-PGF2α (isoprostanes) [2]: inhibits the production of isoprostanes; release of 8-iso-PGF2α (isoprostanes) ([2]; listed as MA): inhibits in a concentration depending way the release of 8-iso-PGF2α; inhibiting power on the production of isoprostanes compared with reference antioxidants ([2]; primary monocytes, listed as MA): higher than that of tocopherol and trolox; also recorded: comparable to that of resveratrol; activation and proliferation of T lymphocytes [3]: inhibits the activation and proliferation of T lymphocytes; production of PGE2 in SK-N-SH cell line (neuroblastoma) ([4]; listed as Maslinic Acid): Dual Effect; production of PGE2 in SK-N-SH cell line (neuroblastoma) ([4]; listed as Maslinic acid): at high doses inhibits the production of PGE2; inhibition of IL-6, TNFα, NO and hydrogen peroxide [5]: do not find; production of IL-6 [6]: inhibits the production of IL-6; production of IL-6 ([6]; listed as MA): completely inhibited; production of PGE2 [7]: inhibits the production; also recorded: inhibited the production of PGE2; production of PGE2 ([7]; listed as Maslinic acid): inhibits the production of PGE2; production of PGE2 in primary astrocytes [8]: Dual Effect; concentrations inhibiting innate and acquired immune responses versus those required to induce apoptosis in tumor cell lines [9]: noticeably lower; IL-6 induced by LPS [10]: inhibits the production; IL-6 induced by LPS ([10]; listed as Maslinic acid): inhibits the production of IL-6; production of TNFα [11]: inhibits the production; transcriptional activity of the COX-2 gene (luciferase) [12]: does not inhibit the transcriptional activation of the gene promoter of COX-2; transcriptional activity of the COX-2 gene (luciferase) ([12]; listed as MA): did not affect the transcriptional activity of the COX-2 gene; enzymatic activity of COX-2 (conversion of arachidonic acid to PGE2, EIA) [13]: inhibits the enzymatic activity of COX-2; enzymatic activity of COX-2 (conversion of arachidonic acid to PGE2, EIA) ([13]; listed as MA): inhibited in a dose-depending manner the enzymatic activity of COX-2; transcriptional activity of the IL-6 promoter (luciferase), IL-1 stimulation ([14]; IL-1, 4 hours): is not produced by a transcriptional inhibition of the gene of IL-6; also recorded: does not inhibit the transcriptional activity of the IL-1 promoter; transcriptional activity of the IL-6 promoter (luciferase), PMA plus ionomycin stimulation ([14]; PMA plus ionomycin, 4 hours): is not produced by a transcriptional inhibition of the gene of IL-6; also recorded: does not inhibit the transcriptional activity of the IL-1 promoter; production of PGE2 after stimulation with IL-1, low doses ([15]; MA 0.1 and 1 μg/ml): an increase in the production of PGE2; release of PGE2 induced by IL-1, higher doses [15]: at high doses inhibits the production of PGE2; release of PGE2 induced by IL-1, higher doses ([15]; listed as MA): a complete inhibition of the release of this prostaglandin; production of NO [16]: inhibits; production of hydrogen peroxide (ROS) [16]: inhibits; release of IL-6 [16]: inhibits; release of TNFα [16]: inhibits
